Columns and labels:
Format in all cases: functional
Candida albicans [1] = assay: […] activity against Candida albicans by EUCAST method
Candida dubliniensis [2] = assay: […] activity against 5FC- resistant Candida dubliniensis isolate harboring plasmid p7276T3 carrying CdFCA1 gene by broth microdilution method in presence of 25 ug/ml DOX
Candida dubliniensis [3] = assay: […] activity against 5FC- […] Candida dubliniensis isolate SA109T1 harboring plasmid pNIM1 carrying CdFCA1 gene by broth microdilution method in presence of 25 ug/ml DOX
Candida dubliniensis [4] = assay: […] activity against Candida dubliniensis isolate SA101 of Cd25 fingerprint group 1 and ITS genotype 1 by CLSI M27-A2 method
Candida dubliniensis [5] = assay: […] activity against 5FC- […] Candida dubliniensis isolate SA109T2 harboring plasmid pNIM1 carrying CdFCA1 gene by broth microdilution method
Candida dubliniensis [6] = assay: […] activity against Candida dubliniensis isolate harboring plasmid p7276 carrying GFP1T1 gene by broth microdilution method in presence of 25 ug/ml DOX
Candida dubliniensis [7] = assay: […] activity against 5FC- resistant Candida dubliniensis isolate harboring plasmid p7276T2 carrying CdFCA1 gene by broth microdilution method
Candida dubliniensis [8] = assay: […] activity against 5FC- susceptible Candida dubliniensis isolate SA113T1 harboring plasmid pNIM1 carrying CdFCA1 gene by broth microdilution method in presence of 30 ug/ml DOX
Candida dubliniensis [9] = assay: […] activity against Candida dubliniensis isolate SA113 by broth microdilution method in presence of 25 ug/ml DOX
Candida dubliniensis [10] = assay: […] activity against 5FC- resistant Candida dubliniensis isolate harboring plasmid p7276T2 carrying CdFCA1 gene by broth microdilution method in presence of 30 ug/ml DOX
Candida dubliniensis [11] = assay: […] activity against Candida dubliniensis isolate SA109 of Cd25 fingerprint group 3 and ITS genotype 3 by CLSI M27-A2 method
Candida dubliniensis [12] = assay: […] activity against Candida dubliniensis isolate p7276 of Cd25 fingerprint group 2 and ITS genotype 3 by CLSI M27-A2 method
Candida dubliniensis [13] = assay: […] activity against Candida dubliniensis isolate CD36b of Cd25 fingerprint group 1 and ITS genotype 1 by CLSI M27-A2 method
Candida dubliniensis [14] = assay: […] activity against Candida dubliniensis isolate Eg201 of Cd25 fingerprint group 3 and ITS genotype 4 by CLSI M27-A2 method
Candida dubliniensis [15] = assay: […] activity against 5FC- […] Candida dubliniensis isolate SA109T1 harboring plasmid pNIM1 carrying CdFCA1 gene by broth microdilution method in presence of 30 ug/ml DOX
Candida dubliniensis [16] = assay: […] activity against Candida dubliniensis harboring plasmid p7276 by broth microdilution method
Candida dubliniensis [17] = assay: […] activity against Candida dubliniensis isolate SA109 by broth microdilution method
Candida dubliniensis [18] = assay: […] activity against Candida dubliniensis isolate SA118 of Cd25 fingerprint group 3 and ITS genotype 3 by CLSI M27-A2 method
Candida dubliniensis [19] = assay: […] activity against 5FC- resistant Candida dubliniensis isolate harboring plasmid p7276T1 carrying CdFCA1 gene by broth microdilution method in presence of 30 ug/ml DOX
Candida dubliniensis [20] = assay: […] activity against 5FC- resistant Candida dubliniensis isolate harboring plasmid p7276T1 carrying CdFCA1 gene by broth microdilution method in presence of 25 ug/ml DOX
Candida dubliniensis [21] = assay: […] activity against Candida dubliniensis isolate Eg207 of Cd25 fingerprint group 3 and ITS genotype 4 by CLSI M27-A2 method
Candida dubliniensis [22] = assay: […] activity against 5FC- resistant Candida dubliniensis isolate harboring plasmid p7276T2 carrying CdFCA1 gene by broth microdilution method in presence of 25 ug/ml DOX
Candida dubliniensis [23] = assay: […] activity against 5FC- resistant Candida dubliniensis isolate harboring plasmid p7276T3 carrying CdFCA1 gene by broth microdilution method in presence of 30 ug/ml DOX
Candida dubliniensis [24] = assay: […] activity against Candida dubliniensis isolate SA109 by broth microdilution method in presence of 25 ug/ml DOX
Candida dubliniensis [25] = assay: […] activity against Candida dubliniensis isolate SA100 of Cd25 fingerprint group 3 and ITS genotype 3 by CLSI M27-A2 method
Candida dubliniensis [26] = assay: […] activity against 5FC- resistant Candida dubliniensis isolate harboring plasmid p7276T1 carrying CdFCA1 gene by broth microdilution method
Candida dubliniensis [27] = assay: […] activity against Candida dubliniensis isolate p6785 of Cd25 fingerprint group 2 and ITS genotype 3 by CLSI M27-A2 method
Candida dubliniensis [28] = assay: […] activity against 5FC- susceptible Candida dubliniensis isolate SA113T1 harboring plasmid pNIM1 carrying CdFCA1 gene by broth microdilution method
Candida dubliniensis [29] = assay: […] activity against Candida dubliniensis isolate harboring plasmid p7276 carrying GFP1T1 gene by broth microdilution method
Candida dubliniensis [30] = assay: […] activity against Candida dubliniensis isolate harboring plasmid p7276 carrying GFP1T1 gene by broth microdilution method in presence of 30 ug/ml DOX
Candida dubliniensis [31] = assay: […] activity against Candida dubliniensis isolate SA109 by broth microdilution method in presence of 30 ug/ml DOX
Candida dubliniensis [32] = assay: […] activity against Candida dubliniensis harboring plasmid p7276 by broth microdilution method in presence of 25 ug/ml DOX
Candida dubliniensis [33] = assay: […] activity against 5FC- […] Candida dubliniensis isolate SA109T2 harboring plasmid pNIM1 carrying CdFCA1 gene by broth microdilution method in presence of 25 ug/ml DOX
Candida dubliniensis [34] = assay: […] activity against 5FC-susceptible Candida dubliniensis by NCCLS M27-A2 broth microdilution method
Candida dubliniensis [35] = assay: […] activity against Candida dubliniensis isolate Eg200 of Cd25 fingerprint group 3 and ITS genotype 4 by CLSI M27-A2 method
Candida dubliniensis [36] = assay: […] activity against Candida dubliniensis isolate Eg206 of Cd25 fingerprint group 1 and ITS genotype 1 by CLSI M27-A2 method
Candida dubliniensis [37] = assay: […] activity against Candida dubliniensis isolate SA108 of Cd25 fingerprint group 3 and ITS genotype 3 by CLSI M27-A2 method
Candida dubliniensis [38] = assay: […] activity against Candida dubliniensis isolate SA113 of Cd25 fingerprint group 3 and ITS genotype 4 by CLSI M27-A2 method
Candida dubliniensis [39] = assay: […] activity against Candida dubliniensis isolate SA113 by broth microdilution method
Candida dubliniensis [40] = assay: […] activity against Candida dubliniensis isolate SA115 of Cd25 fingerprint group 1 and ITS genotype 1 by CLSI M27-A2 method
Candida dubliniensis [41] = assay: […] activity against Candida dubliniensis isolate p7718 of Cd25 fingerprint group 3 and ITS genotype 4 by CLSI M27-A2 method
Candida dubliniensis [42] = assay: […] activity against Candida dubliniensis harboring plasmid p7276 by broth microdilution method in presence of 30 ug/ml DOX
Candida dubliniensis [43] = assay: […] activity against 5FC- […] Candida dubliniensis isolate SA113T1 harboring plasmid pNIM1 carrying CdFCA1 gene by broth microdilution method in presence of 25 ug/ml DOX
Candida dubliniensis [44] = assay: […] activity against Candida dubliniensis isolate Eg203 of Cd25 fingerprint group 1 and ITS genotype 1 by CLSI M27-A2 method
Candida albicans [45] = assay: […] activity against Candida albicans harboring Ser29Leu substitution in the cytosine deaminase gene by EUCAST method
Candida dubliniensis [46] = assay: […] activity against 5FC- […] Candida dubliniensis isolate SA109T1 harboring plasmid pNIM1 carrying CdFCA1 gene by broth microdilution method
Candida dubliniensis [47] = assay: […] activity against Candida dubliniensis isolate SA121 of Cd25 fingerprint group 3 and ITS genotype 4 by CLSI M27-A2 method
Candida dubliniensis [48] = assay: […] activity against 5FC-resistant Candida dubliniensis by NCCLS M27-A2 broth microdilution method
Candida dubliniensis [49] = assay: […] activity against Candida dubliniensis isolate SA113 by broth microdilution method in presence of 30 ug/ml DOX
Candida dubliniensis [50] = assay: […] activity against 5FC- resistant Candida dubliniensis isolate harboring plasmid p7276T3 carrying CdFCA1 gene by broth microdilution method
Candida dubliniensis [51] = assay: […] activity against 5FC- […] Candida dubliniensis isolate SA109T2 harboring plasmid pNIM1 carrying CdFCA1 gene by broth microdilution method in presence of 30 ug/ml DOX
Candida dubliniensis [52] = assay: […] activity against Candida dubliniensis isolate SA107 of Cd25 fingerprint group 3 and ITS genotype 3 by CLSI M27-A2 method
Candida dubliniensis [53] = assay: […] activity against Candida dubliniensis isolate SA105 of Cd25 fingerprint group 1 and ITS genotype 1 by CLSI M27-A2 method
Candida albicans [54] = assay: […] activity against Candida albicans harboring Gly28Asp substitution in the cytosine deaminase gene by EUCAST method
Candida dubliniensis [55] = assay: […] activity against Candida dubliniensis isolate Eg202 of Cd25 fingerprint group 3 and ITS genotype 4 by CLSI M27-A2 method
Candida dubliniensis [56] = assay: […] activity against Candida dubliniensis isolate SA103 of Cd25 fingerprint group 3 and ITS genotype 3 by CLSI M27-A2 method

Measured: MIC

Nc1nc(=O)[nH]cc1F [FLUCYTOSINE]
> 64 µg/mL: Candida albicans [54]
4 µg/mL: Candida albicans [45]
≤ 0.125 µg/mL: Candida dubliniensis [34]
≥ 128 µg/mL: Candida dubliniensis [5] | Candida dubliniensis [9] | Candida dubliniensis [11] | Candida dubliniensis [14] | Candida dubliniensis [17] | Candida dubliniensis [18] | Candida dubliniensis [21] | Candida dubliniensis [24] | Candida dubliniensis [25] | Candida dubliniensis [28] | Candida dubliniensis [31] | Candida dubliniensis [35] | Candida dubliniensis [37] | Candida dubliniensis [38] | Candida dubliniensis [39] | Candida dubliniensis [46] | Candida dubliniensis [47] | Candida dubliniensis [48] | Candida dubliniensis [49] | Candida dubliniensis [52] | Candida dubliniensis [55] | Candida dubliniensis [56]
≥ 0.06 µg/mL: Candida albicans [1]
≤ 0.25 µg/mL: all other assays above

Reference: ChEMBL document CHEMBL1649254, “A Ser29Leu substitution in the cytosine deaminase Fca1p is responsible for clade-specific flucytosine resistance in Candida dubliniensis” (2009)
